Laboratory results published in patent US20050123553A1, “Amyloid beta-peptide and methods of use” (priority 2003, published 2005).
Ends that are not written are not given here.

Columns and labels:
[1] = system: Aβ16-30-specific T cells; test: Proliferation of Aβ16-30-specific T cells with alanine/glycine-substituted peptides; format: cell-based, human; details: for T-cell proliferation, average cpm: 72 hr
Text: Because the T-cell epitopes were most frequently localized to Aβ16-30, we further mapped this epitope for each of its constituent amino acids by using alanine-substituted peptides in the T-cell proliferation assay (the naturally occurring alanines at positions 21 and 30 were changed to glycines). […] Substitution of lysine-16, alanine-21, serine-26 or aspargine-27 increased T-cell proliferation by more than 2-fold (Table 4).
In this experiment, T cells specific to Aβ16-30 were stimulated in the presence of alanine/glycine substituted peptides and autologous PBMCs. T-cell proliferation was measured by [^3H]-thymidine incorporation 72 hr after stimulation. Numbers represent average cpm of each antigen concentration tested (average cpm in the absence of antigen was 911).
(§1) T-cell lines were then supplemented with 10 μg/ml IL-2 after 48 hours and every 2 days thereafter until they were completely resting. T-cell proliferation was measured 72 hours after stimulation following a 12 hr incubation with [^3H]-thymidine. Supernatants were collected 48 hr after T-cell stimulation, and antigen-induced cytokine production was measured by sandwich ELISA. Recommended pairs of antibodies (coating and detecting) for IL-10 (R&D, Minneapolis, Minn.), INF-γ. Endogen, Woburn, Mass.), IL-13 (PharMingen, (San Diego, Calif.), and TGF-β (Promega, Madison, Wis.) were used according to the manufacturer's instructions. Surface and intracellular staining was performed on Aβ-reactive T-cells after stimulation. All antibodies were purchased from BD Biosciences (San Diego, Calif.) and staining was performed according to the manufacturer's instructions.

[2] = system: Aβ-reactive T-cell lines; test: Cytokine secretion of Aβ-reactive T-cell lines (sandwich ELISA); format: cell-based, human
Procedure: as §1

[3] = system: Aβ1-42-reactive T-cell lines; test: Epitope mapping / proliferation of Aβ1-42-reactive T-cell lines; format: cell-based, human; details: for Distribution of Aβ T-cell epitopes: Number of T-cell lines / Distribution of Aβ T-cell epitopes: percent: lines from 24 subjects, fine mapping with 15 amino acid overlapping peptides
Procedure: Epitope specificity of these 3 T-cell lines using 5 overlapping peptides within Aβ15-42 was further investigated.
as §1

[4] = system: popliteal draining lymph nodes (PLN) T cells; test: Lymph node T-cell proliferation after immunization of mice with Aβ in CFA; format: cell-based, mouse; details: for T-cell proliferation across the peptide series Aβ7-21 to Aβ10-24: SJL mice immunized with rodent Aβ1-42; for T-cell proliferation with overlapping peptides: immunized with human Aβ1-42
[5] = system: APP/IFN-g Tg mice
Procedure: To determine whether carrying the IA^s allele is sufficient to induce T-cell activation and migration to the CNS of APP-tg mice, B6SJLF1 APP-tg mice line J20, see Methods) were immunized with Aβ10-24 in CFA followed by intravenous injection of PT at the time of immunization and 48 hr later.
APP/IFN-γ tg mice that were immunized with Aβb 10-24 were analyzed by immunohistochemistry 20 and 30 days after immunization for immune infiltrates associated with Aβ plaques.
Immunization and measurement of immune responses: Mice were immunized by footpad injection if sacrificed on day 12, for longer periods mice were injected in the flanks. Each mouse received 100 ml of antigen (1 mg/ml), emulsified in an equal volume of complete Freund's adjuvant (CFA). Mice were also injected intravenously with 150 ng pertussis toxin at the time of immunization and 48 hours later.
Immunohistochemistry and imaging: Cryosections (6 μm) from brains of APP-Tg+ mice were placed onto glass slides and fixed with ice-cold methanol for 2 min followed by 2% PFA at RT for 4 min. Sections were washed once with distilled water for 5 min and twice with PBS containing 0.05% Tween-20. Sections were then incubated for 1 hour at RT with blocking buffer (PBS containing 3% normal goat serum and 2% bovine serum albumin).

[6] = 48 hr after stimulation, T-cell lines 1, 2, 3
[7] = SJL-derived lymphocyte cultures
[8] = App Tg, C57BL6, 12 days after imm.

Row | Substance | T-cell proliferation, average cpm ([1]; Peptide 0.1 μg/ml) | T-cell proliferation, average cpm ([1]; Peptide 1 μg/ml) | T-cell proliferation, average cpm ([1]; Peptide 10 μg/ml) | further results
1 | Ala 21 Gly: Aβ16-30 peptide with alanine 21 changed to glycine (KLVFFGEDVGSNKGA; Amyloid-beta protein 42; UniProt P05067 687-701, looked up, variant A21G) | 12901 cpm | 29634 cpm | 36448 cpm | 
2 | Ala 30 Gly: Aβ16-30 peptide with alanine 30 changed to glycine (KLVFFAEDVGSNKGG; Amyloid-beta protein 42; UniProt P05067 687-701, looked up, variant A30G) | 2123 cpm | 12027 cpm | 15395 cpm | 
3 | Asn 27 Ala: Aβ16-30 peptide with asparagine-27 substituted by alanine (KLVFFAEDVGSAKGA; Amyloid-beta protein 42; UniProt P05067 687-701, looked up, variant N27A) | 23636 cpm | 36588 cpm | 34983 cpm | 
4 | Asp 23 Ala: Aβ16-30 peptide with aspartic acid-23 substituted by alanine (KLVFFAEAVGSNKGA; Amyloid-beta protein 42; UniProt P05067 687-701, looked up, variant D23A) | 1145 cpm | 1685 cpm | 612 cpm | effect of substitution on T-cell proliferation ([1]; at all 3 concentrations used): blocked or significantly decreased
5 | Aβ1-28: overlapping N-terminal fragment of Aβ1-42, residues 1-28 |  |  |  | IFN-γ secretion [2, 6]: not IFN-γ; IL-13 secretion [2, 6]: high levels; Distribution of Aβ T-cell epitopes: Number of T-cell lines [3]: 2; Distribution of Aβ T-cell epitopes: percent [3]: 8%
6 | Aβ7-21: nested Aβ peptide, residues 7-21 (DSGYEVHHQKLVFFA; Amyloid-beta protein 42; UniProt P05067 678-692, looked up, fragment) |  |  |  | T-cell proliferation ([4]; NOD mice immunized with Aβ1-42): slight T-cell proliferation; T-cell proliferation across the peptide series Aβ7-21 to Aβ10-24 [4]: gradual increase; T-cell proliferation with overlapping peptides [4, 7]: induced T-cell proliferation; Distribution of Aβ T-cell epitopes: Number of T-cell lines [3]: 1; Distribution of Aβ T-cell epitopes: percent [3]: 4%
7 | Aβ8-22: Aβ peptide, residues 8-22 (SGYEVHHQKLVFFAE; Amyloid-beta protein 42; UniProt P05067 679-693, looked up, fragment) |  |  |  | T-cell proliferation across the peptide series Aβ7-21 to Aβ10-24 [4]: gradual increase
8 | Aβ13-27: nested Aβ peptide, residues 13-27 (HHQKLVFFAEDVGSN; Amyloid-beta protein 42; UniProt P05067 684-698, looked up, fragment) |  |  |  | T-cell proliferation with overlapping peptides [4, 7]: induced T-cell proliferation
9 | Aβ16-30: nested Aβ peptide, residues 16-30 (KLVFFAEDVGSNKGA; Amyloid-beta protein 42; UniProt P05067 687-701, looked up, fragment) | 1648 cpm | 6780 cpm | 17339 cpm | Th2 response [2]: elicit a Th2 response; CD4 (cells/mm^2 ± SEM) [5, 8]: 0 cells/mm^2; CD11b (cells/mm^2 ± SEM) [5, 8]: 0 cells/mm^2; response compared with that induced by Aβ1-42 ([4]; 10-24 in SJL, 16-30 in C57BL6 mice): equivalent; T-cell proliferation with overlapping peptides ([4]; C57BL6 mice): induced proliferation; recall proliferation of LN-derived T cells in vitro ([4]; SJL mice immunized with human Aβ10-24): not; frequency of positive T-cell lines induced [3]: highest frequency; Distribution of Aβ T-cell epitopes: Number of T-cell lines [3]: 10; Distribution of Aβ T-cell epitopes: percent [3]: 42%
10 | Aβ19-33: nested Aβ peptide, residues 19-33 (FFAEDVGSNKGAIIG) |  |  |  | location of T-cell epitopes ([3]; T-cell line DRB1 1501/1101, 5 overlapping peptides within Aβ15-42): mainly located
11 | Aβ28-42: nested Aβ peptide, residues 28-42 (KGAIIGLMVGGVVIA; Amyloid-beta protein 42; UniProt P05067 699-713, looked up, fragment) |  |  |  | Distribution of Aβ T-cell epitopes: Number of T-cell lines [3]: 5; Distribution of Aβ T-cell epitopes: percent [3]: 20%
12 | Glu 22 Ala: Aβ16-30 peptide with glutamic acid-22 substituted by alanine (KLVFFAADVGSNKGA; Amyloid-beta protein 42; UniProt P05067 687-701, looked up, variant E22A) | 1145 cpm | 840 cpm | 517 cpm | effect of substitution on T-cell proliferation ([1]; at all 3 concentrations used): blocked or significantly decreased
13 | Gly 25 Ala: Aβ16-30 peptide with Gly 25 substituted by alanine (KLVFFAEDVASNKGA; Amyloid-beta protein 42; UniProt P05067 687-701, looked up, variant G25A) | 2426 cpm | 13763 cpm | 24979 cpm | 
14 | Gly 29 Ala: Aβ16-30 peptide with glycine-29 substituted by alanine (KLVFFAEDVGSNKAA; Amyloid-beta protein 42; UniProt P05067 687-701, looked up, variant G29A) | 622 cpm | 3014 cpm | 14513 cpm | effect of substitution on T-cell proliferation ([1]; only at 0.1 or 1 μg/ml): inhibitory effects
15 | Leu 17 Ala: Aβ16-30 peptide with Leu 17 substituted by alanine (KAVFFAEDVGSNKGA; Amyloid-beta protein 42; UniProt P05067 687-701, looked up, variant L17A) | 2242 cpm | 11805 cpm | 24480 cpm | 
16 | Lys 16 Ala: Aβ16-30 peptide with lysine-16 substituted by alanine (ALVFFAEDVGSNKGA; Amyloid-beta protein 42; UniProt P05067 687-701, looked up, variant K16A) | 5357 cpm | 22304 cpm | 36456 cpm | 
17 | Lys 28 Ala: Aβ16-30 peptide with Lys 28 substituted by alanine (KLVFFAEDVGSNAGA; Amyloid-beta protein 42; UniProt P05067 687-701, looked up, variant K28A) | 5050 cpm | 15475 cpm | 29156 cpm | 
18 | Phe 19 Ala: Aβ16-30 peptide with phenylalanine-19 substituted by alanine (KLVAFAEDVGSNKGA; Amyloid-beta protein 42; UniProt P05067 687-701, looked up, variant F19A) | 986 cpm | 4354 cpm | 17943 cpm | effect of substitution on T-cell proliferation ([1]; only at 0.1 or 1 μg/ml): inhibitory effects
19 | Phe 20 Ala: Aβ16-30 peptide with phenylalanine-20 substituted by alanine (KLVFAAEDVGSNKGA; Amyloid-beta protein 42; UniProt P05067 687-701, looked up, variant F20A) | 1188 cpm | 2239 cpm | 4216 cpm | effect of substitution on T-cell proliferation ([1]; at all 3 concentrations used): blocked or significantly decreased
20 | Ser 26 Ala: Aβ16-30 peptide with serine-26 substituted by alanine (KLVFFAEDVGANKGA; Amyloid-beta protein 42; UniProt P05067 687-701, looked up, variant S26A) | 18808 cpm | 36287 cpm | 38335 cpm | 
21 | Val 18 Ala: Aβ16-30 peptide with Val 18 substituted by alanine (KLAFFAEDVGSNKGA; Amyloid-beta protein 42; UniProt P05067 687-701, looked up, variant V18A) | 7216 cpm | 17427 cpm | 26814 cpm | 
22 | Val 24 Ala: Aβ16-30 peptide with valine-24 substituted by alanine (KLVFFAEDAGSNKGA; Amyloid-beta protein 42; UniProt P05067 687-701, looked up, variant V24A) | 944 cpm | 6160 cpm | 19869 cpm | effect of substitution on T-cell proliferation ([1]; only at 0.1 or 1 μg/ml): inhibitory effects
23 | YEVHHQKLVFFAEDV [Aβ10-24] |  |  |  | Immune infiltrates in the spinal cord ([5]; mouse, in vivo): not observed; meningoencephalitis ([5]; mouse, in vivo): strong meningoencephalitis
